In patent publication US20230309562A1 (priority 2020, published 2023):
Where two headings read alike, the source gives them in different places.

What was measured:
[1] = system: SARS COVID-19; type: cell-based; settings: for TCID 50% viral kill: 5-minute exposure
[2] = system: Influenza A; type: cell-based
[3] = system: infectious microorganism; settings: cited from earlier work
[4] = system: Ebola virus; settings: exposure times of at least several minutes required, cited from earlier work

Row | Structure (SMILES) | TCID 50% viral kill ([1]; 1 ppm) | TCID 50% viral kill ([1]; 2.5 ppm) | TCID 50% viral kill ([1]; 10 ppm) | TCID 50% viral kill ([1]; 25 ppm) | virus kill by HOCl treatment ([1]; concentrations of between 1 ppm and 25 ppm) | TCID 50% viral kill [2] | virus kill by HOCl treatment [2] | growth inhibition ([3]; 2.6 ppm, in 5 minutes) [%] | LD50 ([3]; reported) | destruction of Ebola virus ([4]; 0.5% solution) | destruction of Ebola virus ([4]; 1% solution)
1 | OCl [HOCl, hypochlorous acid] | viral kill positive | viral kill positive | viral kill positive | viral kill positive | killed | viral kill positive | killed | 100 | 0.0104-0.156 ppm | – | –
2 | OCl [sodium hypochlorite, Sodium hypochlorite] | – | – | – | – | – | – | – | – | – | effectively destroy | effectively destroy
